According to US9006205B2, “Antisense oligonucleotides against neutral sphingomyelinase and neutral sphingomyelinase inhibitor GW4869 for degenerative neurological disorders” (Rush University Medical Center, priority 2011, dated 2015):

Columns and labels:
Assay type in all cases: cell-based
[1] = tested on: primary human neurons; assay: TUNEL apoptosis of neurons challenged by (fibrillar Aβ+IL-1β)-activated astrocytes, astrocyte-neuron trans-well; details: neurons pretreated 40 h with 1 μM oligonucleotide; 6 h with (fibrillar Aβ+IL-1β)-activated astrocytes
Protocol: Primary human astrocytes were grown to confluency on inserts. After 24 h of stimulation by the combination of Aβ (1 μM) and IL-Iβ (10 ng/ml), inserts were washed thrice with HBSS and then placed onto the wells containing primary human neurons. Therefore, in this trans-well model, although neurons and astrocytes face each other, they are separable and the effect of soluble factors released from activated astrocytes on neurons can be studied allowing analysis of neuronal and glial populations separately.
Fragmented DNA was detected in situ by the terminal deoxynucleotidyltransferase-mediated binding of 3′-OH ends of DNA fragments generated in response to fibrillar Aβ1-42, using a commercially available kit (TdT FragEL™) from Calbiochem. […]
Primary human neurons were incubated with antisense (ASO) and scrambled oligonucleotides (ScO) against N-SMase (A) and A-SMase (FIG. 2B). After 48 h, neurons were analyzed for protein expression of N-SMase and A-SMase. […] After 6 h of treatment with activated astrocytes, apoptotic events in neurons were detected by TUNEL. In FIG. 2D, TUNEL-positive cells were counted manually in four different images of each of three coverslips by three individuals blinded to the experiment. […] Values obtained from the control group served as 100%, and data obtained in other groups were calculated as percent of control accordingly. […]

[2] = tested on: A-SMase; assay: Western blot of A-SMase protein after antisense knockdown in primary human neurons; details: 48 h with oligonucleotide
Protocol: Because these ASOs have become a very critical part of our study, the efficacy of N-SMase and A-SMase ASOs in inhibiting the protein expression of N-SMase and A-SMase was checked by western blot. […] Next, the effect of antisense knockdown of neuronal N-SMase and/or A-SMase on activated glia-induced neuronal apoptosis by TUNEL was investigated. […] As evidenced by a decrease In MTT metabolism, activated astroglia reduced neuronal viability (FIG. 2E).
Primary human neurons were incubated with antisense (ASO) and scrambled oligonucleotides (ScO) against N-SMase (A) and A-SMase (FIG. 2B). After 48 h, neurons were analyzed for protein expression of N-SMase and A-SMase. In FIG. 2C, primary human astrocytes seeded in inserts were stimulated by the combination of Aβ and IL-1β as described above. […] After 6 h of treatment with activated astrocytes, apoptotic events in neurons were detected by TUNEL. In FIG. 2D, TUNEL-positive cells were counted manually in four different images of each of three coverslips by three individuals blinded to the experiment. In FIG. 2E, after 18 h of stimulation, cell viability was examined by the metabolism of MTT and the release of LDH. […] Cell viability was checked by MTT (FIG. 2F) and LDH (FIG. 2G). Values obtained from the control group served as 100%, and data obtained in other groups were calculated as percent of control accordingly. […]

[3] = target: T1, N-SMase (Homo sapiens, UniProt Q9NY59); assay: Assay of N-SMase activity in primary human neurons; details: activated astroglia-insulted human neurons, chemical inhibitors
T1 construct: endogenous in cells; host or cells: primary human neurons
T1 sequence (Q9NY59 1-655): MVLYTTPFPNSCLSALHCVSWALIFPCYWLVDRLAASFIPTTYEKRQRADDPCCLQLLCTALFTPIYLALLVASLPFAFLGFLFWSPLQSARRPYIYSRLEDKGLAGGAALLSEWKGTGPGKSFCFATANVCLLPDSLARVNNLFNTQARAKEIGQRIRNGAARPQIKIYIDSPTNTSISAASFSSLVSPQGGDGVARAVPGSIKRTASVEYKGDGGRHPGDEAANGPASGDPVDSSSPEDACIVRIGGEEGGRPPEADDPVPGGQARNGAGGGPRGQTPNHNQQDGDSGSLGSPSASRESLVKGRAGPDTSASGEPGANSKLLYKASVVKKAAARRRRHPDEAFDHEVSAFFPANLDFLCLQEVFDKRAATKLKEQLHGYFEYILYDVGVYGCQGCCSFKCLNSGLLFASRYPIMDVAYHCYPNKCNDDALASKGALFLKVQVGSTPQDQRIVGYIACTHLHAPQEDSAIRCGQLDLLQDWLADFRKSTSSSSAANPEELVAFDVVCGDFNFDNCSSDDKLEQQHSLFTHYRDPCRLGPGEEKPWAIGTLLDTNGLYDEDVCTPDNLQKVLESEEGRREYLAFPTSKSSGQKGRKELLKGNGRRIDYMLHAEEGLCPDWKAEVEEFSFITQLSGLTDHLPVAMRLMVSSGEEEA
Protocol: Activities of SMase(s) were assayed as described by. Briefly, after treatment, the cells were washed with PBS, harvested in PBS, divided into two halves, and centrifuged. The fraction for N-SMase was resuspended in buffer A (100 mM Tris-HCl, pH 7.4, 0.1% Triton X-100, 1 mM EDTA, and protease inhibitors), and the cell suspension was sonicated and centrifuged at 500×g at 4° C. for 5 min. The supernatant was used as the enzyme source for N-SMase. The reaction mixture contained enzyme preparation in buffer A containing 5 nmol of [^14C] sphingomyelin, 5 nmol of phosphatidylserine, 5 mM dithiothreitol, and 5 mM MgC¾ in a final volume of 100 μl. Similarly, the fraction for A-SMase was resuspended in buffer B (100 mM sodium acetate, pH 5.0, 0.1% Triton X-100, and protease inhibitors). The cell suspension was sonicated and centrifuged. The supernatant was used as the source of A-SMase. The activity of A-SMase was measured in a 100-μl reaction mixture consisting of the enzyme preparation in buffer B and 5 nmol of [^14C] sphingomyelin. The enzyme reaction was initiated by the addition of 50 μl of substrate and stopped by the addition of 1.5 ml of chloroform:methanol (2:1, v/v) and 0.2 ml of water. After vortexing and phase separation, the aqueous phase was removed for counting.
In FIGS. 3A-3E, primary human astrocytes seeded in inserts were stimulated by the combination of Aβ and IL-Iβ as described above. After 24 h, media were removed and inserts were washed and placed on neurons that were pretreated with PTIO for 30 min. In FIG. 3A, after 1 h, activity of N-SMase was measured in total cell extracts of neurons as described above. After 18 h, neuronal viability was examined by the metabolism of MTT (FIG. 3B) and the release of LDH (FIG. 3C). Values obtained from the control group served as 100%, and data obtained in other groups were calculated as percent of control accordingly. Results are mean+S.D. of three different experiments. ^ap<0.001 vs control; ^bp<0.001 vs activated astrocytes. Primary human neurons were treated with 25 μM DETA-NONOate (a NO donor) and at different time points of treatment, activities of N-SMase (FIG. 3D) and A-SMase (FIG. 3E) were monitored. ^ap<0.001 vs control (0 h).

[4] = tested on: primary human astroglia; assay: NO synthesis (nitrite, Griess reagent) in primary human astroglia; details: astroglia preincubated 30 min with different concentrations of chemical inhibitor; nitrite after 24 h
Protocol: Synthesis of NO was determined by assay of culture supernatants for nitrite, a stable reaction product of NO with molecular oxygen, using Griess reagent as described.
After 24 h of stimulation, the concentration of nitrite was measured in supernatants (FIG. 4A) by Griess reagent. […] Cells were treated with ASO/ScO for 40 h followed by stimulation with the combination of fibrillar Aβ and IL-Iβ as above. After 6 h, the expression of iNOS mRNA was analyzed by both semi-quantitative RT-PCR (C) and quantitative real-time PCR (FIG. 4D). The expression of TNF-a, IL-6 and IL-Iβ mRNAs were analyzed by semi-quantitative RT-PCR (FIG. 4E). Results are mean±SD of three different experiments. ^ap<0.001 vs control; ^bp<0.001 vs (Aβ+IL-Iβ).

[5] = target: T2, A-SMase (Homo sapiens, UniProt P17405); assay: Assay of A-SMase activity in primary human neurons; details: activated astroglia-insulted human neurons, chemical inhibitors
T2 construct: The supernatant was used as the source of A-SMase; endogenous in cells; host or cells: primary human neurons
T2 sequence (P17405 47-631): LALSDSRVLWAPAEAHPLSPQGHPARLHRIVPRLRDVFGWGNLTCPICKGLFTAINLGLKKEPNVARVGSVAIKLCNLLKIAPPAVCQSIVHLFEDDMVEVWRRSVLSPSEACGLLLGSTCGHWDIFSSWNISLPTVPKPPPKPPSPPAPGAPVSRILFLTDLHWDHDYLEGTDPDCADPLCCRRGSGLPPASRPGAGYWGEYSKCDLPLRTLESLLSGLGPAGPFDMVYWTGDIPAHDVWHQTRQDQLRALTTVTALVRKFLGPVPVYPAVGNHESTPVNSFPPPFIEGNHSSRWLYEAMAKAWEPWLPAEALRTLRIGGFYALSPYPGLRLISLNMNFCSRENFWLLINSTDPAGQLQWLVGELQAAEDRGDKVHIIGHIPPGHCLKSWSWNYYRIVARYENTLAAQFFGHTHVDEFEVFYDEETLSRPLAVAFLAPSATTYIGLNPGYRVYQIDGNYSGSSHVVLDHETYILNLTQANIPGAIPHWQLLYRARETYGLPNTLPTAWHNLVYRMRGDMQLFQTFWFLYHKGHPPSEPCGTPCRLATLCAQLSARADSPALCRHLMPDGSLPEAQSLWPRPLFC
Protocol: Activities of SMase(s) were assayed as described by. Briefly, after treatment, the cells were washed with PBS, harvested in PBS, divided into two halves, and centrifuged. The fraction for N-SMase was resuspended in buffer A (100 mM Tris-HCl, pH 7.4, 0.1% Triton X-100, 1 mM EDTA, and protease inhibitors), and the cell suspension was sonicated and centrifuged at 500×g at 4° C. for 5 min. The supernatant was used as the enzyme source for N-SMase. The reaction mixture contained enzyme preparation in buffer A containing 5 nmol of [^14C] sphingomyelin, 5 nmol of phosphatidylserine, 5 mM dithiothreitol, and 5 mM MgC¾ in a final volume of 100 μl. […] The activity of A-SMase was measured in a 100-μl reaction mixture consisting of the enzyme preparation in buffer B and 5 nmol of [^14C] sphingomyelin. […]
In FIGS. 3A-3E, primary human astrocytes seeded in inserts were stimulated by the combination of Aβ and IL-Iβ as described above. […] In FIG. 3A, after 1 h, activity of N-SMase was measured in total cell extracts of neurons as described above. […] Values obtained from the control group served as 100%, and data obtained in other groups were calculated as percent of control accordingly. […] Primary human neurons were treated with 25 μM DETA-NONOate (a NO donor) and at different time points of treatment, activities of N-SMase (FIG. 3D) and A-SMase (FIG. 3E) were monitored. ^ap<0.001 vs control (0 h).

| Molecule | protection of neurons from activated astrocyte-induced apoptosis (TUNEL) [1] | level of A-SMase protein [2] | activity of N-SMase [3] | (Aβ+IL-1β)-induced production of NO [4] | activity of A-SMase [5] |
| --- | --- | --- | --- | --- | --- |
| 5′- GACATCTCGGAGCCGGGGCA -3′ (DNA, all phosphorothioate, methylation of C not given here) [ASO against A-SMase, ID; NO.: 14] | failed to rescue neurons | suppressed |  |  |  |
| CN(C)CCCN1c2ccccc2CCc2ccccc21 [imipramine] |  |  | but not N-SMase | showed no effect | inhibited |
